Patent US4520014A (priority 1979, dated 1985)
Counter-ions that a name gives are not always drawn. Like-named read-outs stand apart in the source and are kept apart here.

Experiments:
[1] = system: fluid secretion caused by the enterotoxin(s) present in the culture filtrate (enteropathogenic strain of E. coli); assay: animal or person; type: in vivo, Mice
[2] = system: fluid secretion caused by material prepared by cell lysis of an enteropathogenic strain of E. coli; assay: Infant rabbit test: inhibition of fluid secretion after oral challenge with E. coli cell lysis material; type: in vivo, Rabbits; settings: for % Fluid Inhibition: Rabbit, hydrochloride salt
Method: Infant rabbits 7-10 days old are dosed with the compound under investigation orally 45 min prior to oral challenge with 50 ml/kg bodyweight of material prepared by cell lysis of an enteropathogenic strain of E. coli. Control animals receive drug vehicle 45 mins prior to challenge with a similar volume of material. 5-7 Hours after oral administration of the challenge the animals are killed and gut weight/remaining bodyweight ratios calculated and the percentage fluid inhibition determined as above.

[3] = system: diarrhoea caused by culture filtrate prepared from an enteropathogenic strain of E. coli; assay: Piglet test: inhibition of scour after oral challenge with E. coli culture filtrate; type: in vivo, Piglets; settings: scour score over 7 h, hydrochloride salt
Method: 2-4 Day old piglets are dosed with the compound orally 45 min prior to oral challenge with 25 ml of culture filtrate prepared from an enteropathogenic strain of E. coli. Control animals receive drug vehicle 45 min prior to challenge with a similar volume of material. Animals are observed for diarrhoea over a 7 hour period and the severity of scour scored on a 0-3 basis for each animal at hourly intervals. The percentage inhibition in treated animals is determined as: [formula]

[4] = system: intestinal secretion induced by cholera toxin; settings: alleged in G. N. Mir et al. (1978); cited from earlier work
E. coli P155 = type: in vivo, Piglets; settings: n = 14
[5] = Mus musculus, po, 2 h; read-out: % Fluid Inhibition
[6] = 10 mg/kg oral, 45 min before challenge

SMILES: Cc1cc(C(C)(C)C)cc(C)c1CC1=NCCN1 [Xylometazoline]
- inhibition in vivo at 8.25 mg/kg ([1]; Mus musculus, po, 2 h): 44%
- % Fluid Inhibition ([2]; 20 mg/kg oral): 119%
- % Fluid Inhibition ([3]; 2 mg/kg oral): 44%

SMILES: Cc1ccc2ccccc2c1CC1=NCCN1 [2-Methyl Naphazoline]
- inhibition in vivo at 20 mg/kg ([1]; Mus musculus, po, 2 h): 82%

SMILES: CNC(=N)NC(=O)Nc1c(C)cccc1C [Lidamidine]
- inhibition of intestinal secretion induced by cholera toxin [4]: inhibited intestinal secretion induced by cholera toxin
- inhibition in vivo at 50 mg/kg ([1]; Mus musculus, po, 2 h): 33%
- activity relative to the Compounds in the mouse test ([1]; mouse, in vivo): at least five times less active than the Compounds
- % Fluid Inhibition ([2]; 50 mg/kg oral): -7%
- activity in the rabbit test ([2]; in words): inactive

SMILES: CC1(C)S[C@@H]2[C@H](NC(=O)[C@H](N)c3ccc(O)cc3)C(=O)N2[C@H]1C(=O)O [Amoxycillin]
- Mean scour score ± S.E.M. (during 6 hrs after treatment) (E. coli P155): 2.0 ± 0.2

SMILES: Clc1cccc(Cl)c1NC1=NCCN1 [Clonidine]
- inhibition in vivo at 1 mg/kg ([1]; Mus musculus, po, 2 h, read-out: % Fluid Inhibition): 42%
- % Fluid Inhibition ([2]; 5 mg/kg oral): 26%
- % Fluid Inhibition ([3]; 0.2 mg/kg oral): 64%

SMILES: N=C(N)NC(=O)Cc1c(Cl)cccc1Cl [BS 100-141, 2,6-dichlorophenylacetylguanidine hydrochloride]
- inhibition in vivo at 1 mg/kg [1, 5]: 45%
- % Fluid Inhibition ([3]; 1 mg/kg oral): 76%

SMILES: c1ccc2c(CC3=NCCN3)cccc2c1 [Naphazoline]
- inhibition in vivo at 10 mg/kg ([1]; Mus musculus, po, 2 h): 59%
- % Fluid Inhibition [2, 6]: 32%
- % Fluid Inhibition [3, 6]: 88%

SMILES: CCc1cccc(CC)c1NC1=NCCN1 [ST91]
- inhibition in vivo at 5 mg/kg ([1]; Mus musculus, po, 2 h): 56%
- inhibition in vivo at 1 mg/kg [1, 5]: 22%

SMILES: c1cc2c(c(NC3=NCCN3)c1)CCCC2 [Tramazoline]
- inhibition in vivo at 10 mg/kg ([1]; Mus musculus, po, 2 h): 44%

SMILES: Cc1cc(C(C)(C)C)c(O)c(C)c1CC1=NCCN1 [Oxymetazoline]
- inhibition in vivo at 0.1 mg/kg ([1]; Mus musculus, po, 2 h): 78%
